The source of these data is ChEMBL document CHEMBL5696442, “Discovery of type II inhibitors of TGFβ-activated kinase 1 (TAK1) and mitogen-activated protein kinase kinase kinase kinase 2 (MAP4K2)” (J Med Chem, 2015).

The source made the active and inactive calls. The calls are words filed in the database; no cut-off is given here.

Test [1] concerns the target Serine/threonine-protein kinase Nek7 (Homo sapiens) (UniProt Q8TDX7). The test is described as follows: Inhibition of NEK7 Lys2 labeling site harbouring VMHRDIKPANVFITATGVVK in human Huh-7 cell lysate at 1 uM by KiNativ Profiling analysis relative to control. It is filed as subcellular.
Test [2] is described as follows: Inhibition of p70S6K Lys2 labeling site in human Huh-7 cells at 1 uM by KiNativ Profiling analysis relative to control. As to conditions: condition cancer.
Test [3] addresses Casein kinase I isoform epsilon (Homo sapiens) (UniProt P49674). The test is described as follows: Inhibition of CK1e Lys2 labeling site in human Huh-7 cells at 1 uM by KiNativ Profiling analysis relative to control. It is filed as cell-based.
Test [4] concerns the target Phosphatidylinositol 4-kinase beta (Homo sapiens) (UniProt Q9UBF8). The test is described as follows: Inhibition of PI4KB ATP labeling site harbouring VPHTQAVVLNSKDK in human Huh-7 cell lysate at 1 uM by KiNativ Profiling analysis relative to control. It is filed as subcellular.
Test [5] concerns the target T1, Serine/threonine-protein kinase TAO1 (Homo sapiens) (UniProt Q7L7X3).
T1 sequence (whole entry): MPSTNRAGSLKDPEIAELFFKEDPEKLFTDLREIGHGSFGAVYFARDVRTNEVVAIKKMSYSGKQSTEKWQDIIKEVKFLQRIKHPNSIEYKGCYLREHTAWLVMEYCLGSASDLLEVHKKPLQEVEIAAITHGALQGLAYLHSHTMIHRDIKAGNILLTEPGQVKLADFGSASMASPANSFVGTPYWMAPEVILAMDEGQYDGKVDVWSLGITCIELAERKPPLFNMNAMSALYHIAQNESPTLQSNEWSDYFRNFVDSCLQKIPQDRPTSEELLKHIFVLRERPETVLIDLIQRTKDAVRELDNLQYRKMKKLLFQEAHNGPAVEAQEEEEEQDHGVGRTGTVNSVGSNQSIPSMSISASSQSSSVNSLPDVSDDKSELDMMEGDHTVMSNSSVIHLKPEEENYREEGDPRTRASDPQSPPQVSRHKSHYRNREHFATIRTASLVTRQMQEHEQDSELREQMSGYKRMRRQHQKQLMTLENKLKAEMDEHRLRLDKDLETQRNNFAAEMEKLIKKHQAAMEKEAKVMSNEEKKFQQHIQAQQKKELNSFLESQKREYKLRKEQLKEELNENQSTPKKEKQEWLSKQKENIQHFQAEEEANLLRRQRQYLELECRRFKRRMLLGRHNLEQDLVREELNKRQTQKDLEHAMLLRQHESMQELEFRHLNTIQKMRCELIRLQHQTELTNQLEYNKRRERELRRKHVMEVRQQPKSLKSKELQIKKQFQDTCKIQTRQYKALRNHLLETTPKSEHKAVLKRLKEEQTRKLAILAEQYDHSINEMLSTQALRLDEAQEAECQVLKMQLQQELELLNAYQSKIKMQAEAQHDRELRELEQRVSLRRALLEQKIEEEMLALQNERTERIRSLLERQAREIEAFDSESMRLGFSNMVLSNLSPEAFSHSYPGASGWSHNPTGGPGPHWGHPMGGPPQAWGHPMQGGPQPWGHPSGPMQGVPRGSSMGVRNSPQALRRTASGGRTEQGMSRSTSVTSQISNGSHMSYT
Briefly: Inhibition of TAO1 Lys2 labeling site in human Huh-7 cells at 1 uM by KiNativ Profiling analysis relative to control. It is filed as cell-based.

In test [6] the target is Tyrosine-protein kinase Blk (Homo sapiens) (UniProt P51451). The test is described as follows: Inhibition of BLK (unknown origin) at 1 uM by Ambit Kinomescan binding assay relative to control; values are per cent of control.
Chain of Tyrosine-protein kinase Blk (Homo sapiens) (P51451 2-505 limits assumed): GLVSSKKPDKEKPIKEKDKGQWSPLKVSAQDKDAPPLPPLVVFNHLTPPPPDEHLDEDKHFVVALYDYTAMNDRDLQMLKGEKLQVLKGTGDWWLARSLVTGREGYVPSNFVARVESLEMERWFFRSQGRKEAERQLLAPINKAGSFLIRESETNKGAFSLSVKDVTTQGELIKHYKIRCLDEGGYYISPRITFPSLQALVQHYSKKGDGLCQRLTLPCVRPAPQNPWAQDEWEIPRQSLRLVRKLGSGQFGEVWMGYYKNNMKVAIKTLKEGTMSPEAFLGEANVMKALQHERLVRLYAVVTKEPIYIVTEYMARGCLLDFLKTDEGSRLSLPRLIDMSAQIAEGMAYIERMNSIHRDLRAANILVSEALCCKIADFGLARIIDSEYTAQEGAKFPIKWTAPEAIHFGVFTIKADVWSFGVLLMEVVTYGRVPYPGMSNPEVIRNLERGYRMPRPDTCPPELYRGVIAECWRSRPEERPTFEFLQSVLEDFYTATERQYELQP
Test [7] addresses Tyrosine-protein kinase Fyn (Homo sapiens) (UniProt P06241). Briefly: Inhibition of FYN (unknown origin) at 1 uM by Ambit Kinomescan binding assay relative to control; values are per cent of control.
In test [8] the target is Serine/threonine-protein kinase PLK1 (Homo sapiens) (UniProt P53350). The test is described as follows: Inhibition of PLK1 Lys2 labeling site in human A-375 cells at 0.05 uM by KiNativ Profiling analysis relative to control. It is filed as cell-based.
For test [9], the system named is Epidermal growth factor receptor (Homo sapiens), P00533 [L858R]. The test is described as follows: Inhibition of EGFR L858R mutant (unknown origin) at 1 uM by Ambit Kinomescan binding assay relative to control.
Chain of Epidermal growth factor receptor (Homo sapiens), P00533 [L858R] (P00533 whole entry L858R): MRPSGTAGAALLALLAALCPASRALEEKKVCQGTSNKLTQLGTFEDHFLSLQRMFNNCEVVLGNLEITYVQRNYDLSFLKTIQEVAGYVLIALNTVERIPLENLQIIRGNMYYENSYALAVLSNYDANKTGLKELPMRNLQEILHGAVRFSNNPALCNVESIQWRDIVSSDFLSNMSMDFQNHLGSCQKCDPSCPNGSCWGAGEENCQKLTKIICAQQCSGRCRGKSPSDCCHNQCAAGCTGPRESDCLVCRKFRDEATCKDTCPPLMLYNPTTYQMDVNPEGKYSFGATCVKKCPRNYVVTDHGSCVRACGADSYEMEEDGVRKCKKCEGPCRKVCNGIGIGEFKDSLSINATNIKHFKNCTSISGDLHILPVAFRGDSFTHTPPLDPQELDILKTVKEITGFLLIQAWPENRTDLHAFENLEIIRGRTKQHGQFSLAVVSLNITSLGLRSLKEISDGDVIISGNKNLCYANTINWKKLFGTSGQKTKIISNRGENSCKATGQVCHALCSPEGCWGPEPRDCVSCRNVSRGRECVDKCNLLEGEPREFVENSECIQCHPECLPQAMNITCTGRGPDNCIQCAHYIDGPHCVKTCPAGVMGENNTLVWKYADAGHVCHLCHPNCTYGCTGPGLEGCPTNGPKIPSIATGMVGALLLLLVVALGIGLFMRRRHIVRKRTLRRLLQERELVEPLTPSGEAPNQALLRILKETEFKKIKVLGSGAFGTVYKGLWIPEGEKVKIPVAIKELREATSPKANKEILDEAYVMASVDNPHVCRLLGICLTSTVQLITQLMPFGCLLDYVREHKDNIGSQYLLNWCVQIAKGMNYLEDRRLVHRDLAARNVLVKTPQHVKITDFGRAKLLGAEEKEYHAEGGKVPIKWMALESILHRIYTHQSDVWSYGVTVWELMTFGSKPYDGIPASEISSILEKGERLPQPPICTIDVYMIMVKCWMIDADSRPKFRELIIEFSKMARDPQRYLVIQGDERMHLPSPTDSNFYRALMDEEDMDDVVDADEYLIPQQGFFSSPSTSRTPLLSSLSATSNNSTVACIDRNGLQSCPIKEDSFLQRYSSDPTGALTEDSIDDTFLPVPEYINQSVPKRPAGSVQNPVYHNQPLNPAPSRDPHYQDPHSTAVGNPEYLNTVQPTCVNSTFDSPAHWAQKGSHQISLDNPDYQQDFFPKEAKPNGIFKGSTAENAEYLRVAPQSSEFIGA
The target of test [10] is Serine/threonine-protein kinase MRCK beta (Homo sapiens) (UniProt Q9Y5S2). Briefly: Inhibition of MRCKb in human A-375 cells at 5 uM by KiNativ Profiling analysis relative to control. Type of test: cell-based.
Test [11] deals with Mast/stem cell growth factor receptor Kit (Homo sapiens), P10721 [L576P]. Briefly: Inhibition of KIT L576P mutant (unknown origin) at 1 uM by Ambit Kinomescan binding assay relative to control; values are per cent of control.
The target in test [12] is Serine/threonine-protein kinase SMG1 (Homo sapiens) (UniProt Q96Q15). Briefly: Inhibition of SMG1 ATP labeling site harbouring DTVTIHSVGGTITILPTKTKPK in human A-375 cells at 0.05 uM by KiNativ Profiling analysis relative to control. It is filed as cell-based.
Test [13] addresses Epidermal growth factor receptor (Homo sapiens) (UniProt P00533). The test is described as follows: Inhibition of EGFR (unknown origin) at 10 uM by Ambit Kinomescan binding assay relative to control.
Test [14] concerns the target Mitogen-activated protein kinase 14 (Homo sapiens, UniProt Q16539). The test is described as follows: Inhibition of p38alpha (unknown origin) at 10 uM by Ambit Kinomescan binding assay relative to control; values are per cent of control.
Test [15] addresses MAP kinase-activated protein kinase 5 (Homo sapiens) (UniProt Q8IW41). The test is described as follows: Inhibition of MAPKAPK5 (unknown origin) at 10 uM by Ambit Kinomescan binding assay.
Test [16] addresses Serine/threonine-protein kinase PAK 4 (Homo sapiens) (UniProt O96013). Briefly: Inhibition of PAK4 (unknown origin) at 10 uM by Ambit Kinomescan binding assay.
The target in test [17] is Calcium/calmodulin-dependent protein kinase type II subunit alpha (Homo sapiens) (UniProt Q9UQM7). The test is described as follows: Inhibition of CAMK2a K2 labeling site in human Huh-7 cells at 1 uM by KiNativ Profiling analysis relative to control. It is filed as cell-based.
Chain of Calcium/calmodulin-dependent protein kinase type II subunit alpha (Homo sapiens) (Q9UQM7 whole entry): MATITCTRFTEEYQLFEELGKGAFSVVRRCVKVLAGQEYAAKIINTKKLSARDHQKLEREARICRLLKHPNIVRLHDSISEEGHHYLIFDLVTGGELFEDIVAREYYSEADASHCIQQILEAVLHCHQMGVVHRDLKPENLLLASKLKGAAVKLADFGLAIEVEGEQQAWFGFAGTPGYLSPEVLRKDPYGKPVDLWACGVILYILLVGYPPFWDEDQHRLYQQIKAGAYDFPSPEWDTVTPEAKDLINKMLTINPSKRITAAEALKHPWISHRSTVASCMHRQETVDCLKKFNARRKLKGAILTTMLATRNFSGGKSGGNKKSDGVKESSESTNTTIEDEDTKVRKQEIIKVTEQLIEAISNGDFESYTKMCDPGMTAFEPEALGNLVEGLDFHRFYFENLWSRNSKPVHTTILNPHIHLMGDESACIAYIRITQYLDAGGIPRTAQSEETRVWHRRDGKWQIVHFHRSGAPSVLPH
For test [18], the target named is Tyrosine-protein kinase CSK (Homo sapiens, UniProt P41240). The test is described as follows: Inhibition of CSK ACT labeling site harbouring VSDFGLTKEASSTQDTGK in human A-375 cells at 0.5 uM by KiNativ Profiling analysis relative to control. Type of test: cell-based.
Test [19] has as its target RPS6KA1/RPS6KA2/RPS6KA3 (Homo sapiens) (UniProt P51812+Q15349+Q15418). The test is described as follows: Inhibition of RSK1/2/3 Domain 1 K2 labeling site harbouring DLKPENILLDEEGHIKLTDFGLSK in human Huh-7 cells at 10 uM by KiNativ Profiling analysis relative to control. Type of test: cell-based.

Chain of Tyrosine-protein kinase Fyn (Homo sapiens) (P06241 2-537 limits assumed): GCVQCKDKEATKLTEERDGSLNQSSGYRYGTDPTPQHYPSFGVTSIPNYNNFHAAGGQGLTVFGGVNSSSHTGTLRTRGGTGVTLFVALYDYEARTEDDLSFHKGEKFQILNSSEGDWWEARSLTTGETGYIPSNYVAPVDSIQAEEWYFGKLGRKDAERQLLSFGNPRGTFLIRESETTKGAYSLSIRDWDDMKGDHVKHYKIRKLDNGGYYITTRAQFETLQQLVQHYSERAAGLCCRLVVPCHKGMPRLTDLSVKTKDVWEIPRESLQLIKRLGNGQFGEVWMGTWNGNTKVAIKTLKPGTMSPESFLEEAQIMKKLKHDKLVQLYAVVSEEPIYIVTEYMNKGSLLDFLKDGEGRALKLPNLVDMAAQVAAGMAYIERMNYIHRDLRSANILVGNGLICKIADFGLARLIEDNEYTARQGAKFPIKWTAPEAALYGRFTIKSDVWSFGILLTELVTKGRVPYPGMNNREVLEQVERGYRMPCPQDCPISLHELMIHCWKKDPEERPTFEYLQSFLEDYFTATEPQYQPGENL
Chain of Phosphatidylinositol 4-kinase beta (Homo sapiens) (Q9UBF8 2-816 limits assumed): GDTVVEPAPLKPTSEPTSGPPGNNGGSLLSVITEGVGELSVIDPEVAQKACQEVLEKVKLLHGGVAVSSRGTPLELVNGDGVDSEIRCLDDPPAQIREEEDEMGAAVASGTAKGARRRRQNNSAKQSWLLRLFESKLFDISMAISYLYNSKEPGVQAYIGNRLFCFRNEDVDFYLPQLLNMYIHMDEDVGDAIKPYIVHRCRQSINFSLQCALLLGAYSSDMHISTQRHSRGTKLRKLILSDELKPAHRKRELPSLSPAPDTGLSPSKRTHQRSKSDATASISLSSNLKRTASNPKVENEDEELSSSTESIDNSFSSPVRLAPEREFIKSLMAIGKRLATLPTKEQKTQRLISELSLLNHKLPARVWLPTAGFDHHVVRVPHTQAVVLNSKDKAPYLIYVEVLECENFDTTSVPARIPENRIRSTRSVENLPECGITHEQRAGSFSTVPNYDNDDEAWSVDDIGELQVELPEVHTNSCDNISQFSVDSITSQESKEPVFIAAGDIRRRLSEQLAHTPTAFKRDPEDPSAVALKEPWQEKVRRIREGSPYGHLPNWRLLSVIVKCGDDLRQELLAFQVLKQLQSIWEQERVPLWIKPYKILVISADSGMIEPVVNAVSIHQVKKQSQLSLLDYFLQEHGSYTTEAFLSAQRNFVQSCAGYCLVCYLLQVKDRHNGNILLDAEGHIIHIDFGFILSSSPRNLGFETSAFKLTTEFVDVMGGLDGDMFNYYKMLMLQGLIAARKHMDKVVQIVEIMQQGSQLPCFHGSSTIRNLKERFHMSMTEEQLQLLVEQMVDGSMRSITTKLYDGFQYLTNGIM
Chain of Casein kinase I isoform epsilon (Homo sapiens) (P49674 whole entry, looked up, canonical isoform): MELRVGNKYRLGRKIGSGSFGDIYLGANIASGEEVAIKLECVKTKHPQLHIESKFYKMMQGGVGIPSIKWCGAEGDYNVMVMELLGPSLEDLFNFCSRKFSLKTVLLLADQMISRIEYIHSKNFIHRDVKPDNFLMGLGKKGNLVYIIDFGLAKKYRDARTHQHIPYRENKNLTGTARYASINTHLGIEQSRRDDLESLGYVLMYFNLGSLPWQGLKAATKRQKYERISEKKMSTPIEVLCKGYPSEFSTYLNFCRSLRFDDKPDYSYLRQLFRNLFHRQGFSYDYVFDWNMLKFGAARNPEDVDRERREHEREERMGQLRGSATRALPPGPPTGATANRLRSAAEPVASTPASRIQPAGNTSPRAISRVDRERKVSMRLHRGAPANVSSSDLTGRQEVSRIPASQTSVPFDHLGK
Chain of Serine/threonine-protein kinase PAK 4 (Homo sapiens) (O96013 whole entry, looked up): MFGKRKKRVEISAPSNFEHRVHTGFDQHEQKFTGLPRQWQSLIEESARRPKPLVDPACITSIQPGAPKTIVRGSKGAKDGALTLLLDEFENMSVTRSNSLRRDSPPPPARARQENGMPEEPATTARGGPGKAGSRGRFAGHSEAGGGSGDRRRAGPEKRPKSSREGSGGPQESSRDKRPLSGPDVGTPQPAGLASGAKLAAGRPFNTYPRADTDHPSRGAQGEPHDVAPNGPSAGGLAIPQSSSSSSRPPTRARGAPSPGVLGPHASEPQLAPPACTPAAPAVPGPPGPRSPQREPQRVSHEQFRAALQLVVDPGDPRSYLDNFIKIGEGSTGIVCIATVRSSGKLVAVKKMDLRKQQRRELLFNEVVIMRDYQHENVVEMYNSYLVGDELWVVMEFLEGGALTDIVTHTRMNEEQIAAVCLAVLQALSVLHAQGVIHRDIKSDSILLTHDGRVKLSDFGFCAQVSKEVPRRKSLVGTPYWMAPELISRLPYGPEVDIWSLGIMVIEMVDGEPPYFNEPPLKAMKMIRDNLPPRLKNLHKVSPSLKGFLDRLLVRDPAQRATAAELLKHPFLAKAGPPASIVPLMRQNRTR
Chain of Mitogen-activated protein kinase 14 (Q16539 whole entry): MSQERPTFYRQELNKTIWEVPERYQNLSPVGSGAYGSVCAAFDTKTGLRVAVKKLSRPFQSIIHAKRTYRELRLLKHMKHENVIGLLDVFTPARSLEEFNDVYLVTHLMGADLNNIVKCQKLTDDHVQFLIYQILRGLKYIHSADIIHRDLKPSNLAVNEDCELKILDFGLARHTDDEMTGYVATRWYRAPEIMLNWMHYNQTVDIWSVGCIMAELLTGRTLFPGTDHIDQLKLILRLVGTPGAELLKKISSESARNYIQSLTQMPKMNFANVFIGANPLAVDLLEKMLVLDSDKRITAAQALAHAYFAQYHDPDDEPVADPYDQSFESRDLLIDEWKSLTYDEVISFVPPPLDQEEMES

In the case of `CNc1cc(Oc2cc(C(=O)Nc3cc(N4CCN(C)CC4)cc(C(F)(F)F)c3)ccc2C)ncn1`, the inhibition (as a rule, the drop in the measured response relative to a control, in per cent) in test [1] amounted to 19.4%; in test [3], 39.1%; in test [4] it was 1.9%; in [5], 0.4%. Moreover, the inhibition at 1 µM in test [2] was -110%.

With `CCN1CCN(Cc2ccc(NC(=O)c3ccc(C)c(/C=C/c4cnc5[nH]ccc5c4OC)c3)cc2C(F)(F)F)CC1`, the residual activity (in general, the signal under treatment as a percentage of the control signal) in test [6] was 0.25%; in test [11], 0.15%. In test [7], this compound yielded a percent of control of 5.2%. The results for the inhibition in test [8], in [9] and in test [10] were 1.3%, 4% and 8.4%, respectively.

As for `CCN1CCN(Cc2ccc(NC(=O)c3ccc(C)c(Oc4ccnc5[nH]ccc45)c3)cc2C(F)(F)F)CC1`, the inhibition was 2.3% in test [12]; 5.6% in test [13]; 5.8% in test [17]; 49.8% in test [18]; -6.5% in test [19]. The percent of control in test [14] was 0%. The inhibition result in [15] and in [16] was “inactive” each time.
